Laboratory results published in publication PMC12649549, “Sequence Permutation Generated Lysine and Tryptophan-Rich Antimicrobial Peptides with Enhanced Therapeutic Index” (Antibiotics, 2025).
Like-named read-outs stand apart in the source and are kept apart here.

Columns and labels:
[1] = tested on: Escherichia coli (ATCC 25922)
Method in brief: (§1)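 Salt and pH tolerance was assessed by determining MICs in LYM medium containing 50–300 mM NaCl, 0.5–2.5 mM MgCl2, or at pH 4.5–6.5, alongside MH broth. The inoculum was 5 × 10^5 CFU/mL.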

S. aureus ATCC 33593 = tested on: S. aureus ATCC 33593
Method in brief: as §1

S. aureus ATCC 33591 = tested on: S. aureus ATCC 33591
Method in brief: as §1

S. aureus ATCC 25923 = tested on: S. aureus ATCC 25923
Method in brief: as §1

[2] = tested on: Pseudomonas aeruginosa Migula (ATCC 27853)
Method in brief: as §1

[3] = tested on: A. baumannii 14B00100 (Acinetobacter sp., BCRC number 14B0100)
Method in brief: as §1

[4] = tested on: A. baumannii 14B0091 (Acinetobacter sp., BCRC number 14B0091)
Method in brief: as §1

[5] = LYM broth, 0 mM NaCl, 16 h, 37 °C
[6] = LYM broth, 50 mM NaCl, 16 h, 37 °C
[7] = LYM broth, 100 mM NaCl, 16 h, 37 °C
[8] = LYM broth, 200 mM (NaCl), 16 h, 37 °C
[9] = LYM broth, 300 mM (NaCl), 16 h, 37 °C
[10] = MH broth, 5 × 10^5 CFU/mL, 16 h, 37 °C, repeated three times

Measured: MIC

Ac-KKKWRKWLKWLAK-NH2 [Peptide W5K12]
6.25 µg/mL: [1]; [8] | S. aureus ATCC 33593; [8] | S. aureus ATCC 33593; [10] | S. aureus ATCC 33591; [8] | S. aureus ATCC 33591; [10] | S. aureus ATCC 25923; [8] | [2]; [8]
12.5 µg/mL: [1]; [9] | S. aureus ATCC 33593; [9] | S. aureus ATCC 33591; [9] | S. aureus ATCC 25923; [9] | [2]; [9]
3.13 µg/mL: [1]; LYM broth, 0.5 mM MgCl2 | [1]; LYM broth, 1.5 mM MgCl2 | [1]; LYM broth, 2.5 mM MgCl2 | [1]; [6] | [1]; [7] | [1]; [10] | S. aureus ATCC 33593; [5] | S. aureus ATCC 33593; LYM broth, 0.5 mM MgCl2 | S. aureus ATCC 33593; LYM broth, 1.5 mM MgCl2 | S. aureus ATCC 33593; LYM broth, 2.5 mM MgCl2 | S. aureus ATCC 33593; [6] | S. aureus ATCC 33593; [7] | S. aureus ATCC 33593; LYM broth, pH 4.5 | S. aureus ATCC 33591; [5] | S. aureus ATCC 33591; LYM broth, 0.5 mM MgCl2 | S. aureus ATCC 33591; LYM broth, 1.5 mM MgCl2 | S. aureus ATCC 33591; LYM broth, 2.5 mM MgCl2 | S. aureus ATCC 33591; [6] | S. aureus ATCC 33591; [7] | S. aureus ATCC 33591; LYM broth, pH 4.5 | S. aureus ATCC 33591; LYM broth, pH 5.5 | S. aureus ATCC 33591; LYM broth, pH 6.5 | S. aureus ATCC 25923; LYM broth, 1.5 mM MgCl2 | S. aureus ATCC 25923; LYM broth, 2.5 mM MgCl2 | S. aureus ATCC 25923; [6] | S. aureus ATCC 25923; [7] | S. aureus ATCC 25923; LYM broth, pH 4.5 | S. aureus ATCC 25923; LYM broth, pH 5.5 | S. aureus ATCC 25923; [10] | [2]; LYM broth, 2.5 mM MgCl2 | [2]; [7] | [2]; [10] | [3]; LYM broth, 2.5 mM MgCl2 | [3]; LYM broth, pH 4.5 | [3]; LYM broth, pH 5.5 | [3]; [10] | [4]; [9] | [4]; LYM broth, pH 4.5 | [4]; LYM broth, pH 5.5
1.56 µg/mL: [1]; [5] | [1]; LYM broth, pH 4.5 | [1]; LYM broth, pH 5.5 | [1]; LYM broth, pH 6.5 | S. aureus ATCC 33593; LYM broth, pH 5.5 | S. aureus ATCC 33593; LYM broth, pH 6.5 | S. aureus ATCC 25923; [5] | S. aureus ATCC 25923; LYM broth, 0.5 mM MgCl2 | S. aureus ATCC 25923; LYM broth, pH 6.5 | [2]; [5] | [2]; LYM broth, 0.5 mM MgCl2 | [2]; LYM broth, 1.5 mM MgCl2 | [2]; [6] | [2]; LYM broth, pH 4.5 | [2]; LYM broth, pH 5.5 | [2]; LYM broth, pH 6.5 | [3]; [5] | [3]; LYM broth, 0.5 mM MgCl2 | [3]; LYM broth, 1.5 mM MgCl2 | [3]; [6] | [3]; [7] | [3]; [8] | [3]; [9] | [3]; LYM broth, pH 6.5 | [4]; [5] | [4]; LYM broth, 0.5 mM MgCl2 | [4]; LYM broth, 1.5 mM MgCl2 | [4]; LYM broth, 2.5 mM MgCl2 | [4]; [6] | [4]; [7] | [4]; [8] | [4]; LYM broth, pH 6.5 | [4]; [10]

Ac-KWLKWLAKKKKWR-NH2 [Peptide W5K04]
25 µg/mL: [1]; [6] | [1]; [10] | S. aureus ATCC 33593; [5] | S. aureus ATCC 33593; LYM broth, 0.5 mM MgCl2 | S. aureus ATCC 33593; LYM broth, 1.5 mM MgCl2 | S. aureus ATCC 33593; LYM broth, 2.5 mM MgCl2 | S. aureus ATCC 33593; [6] | S. aureus ATCC 33593; LYM broth, pH 4.5 | S. aureus ATCC 33593; LYM broth, pH 5.5 | S. aureus ATCC 33593; LYM broth, pH 6.5 | S. aureus ATCC 33591; [5] | S. aureus ATCC 33591; LYM broth, 0.5 mM MgCl2 | S. aureus ATCC 33591; LYM broth, 1.5 mM MgCl2 | S. aureus ATCC 33591; LYM broth, pH 4.5 | S. aureus ATCC 25923; [7] | [2]; [7] | [3]; [9]
6.25 µg/mL: [1]; [5] | [1]; LYM broth, pH 4.5 | S. aureus ATCC 25923; [5] | S. aureus ATCC 25923; LYM broth, 0.5 mM MgCl2 | S. aureus ATCC 25923; LYM broth, 1.5 mM MgCl2 | S. aureus ATCC 25923; LYM broth, 2.5 mM MgCl2 | S. aureus ATCC 25923; LYM broth, pH 5.5 | [2]; LYM broth, 0.5 mM MgCl2 | [2]; LYM broth, pH 4.5 | [2]; LYM broth, pH 5.5
3.13 µg/mL: [1]; LYM broth, pH 5.5 | [1]; LYM broth, pH 6.5 | S. aureus ATCC 25923; LYM broth, pH 6.5 | [2]; LYM broth, pH 6.5 | [3]; LYM broth, 1.5 mM MgCl2 | [3]; LYM broth, 2.5 mM MgCl2 | [3]; [7] | [4]; LYM broth, 1.5 mM MgCl2 | [4]; LYM broth, 2.5 mM MgCl2 | [4]; [6] | [4]; [7] | [4]; LYM broth, pH 4.5 | [4]; LYM broth, pH 5.5
12.5 µg/mL: [1]; LYM broth, 0.5 mM MgCl2 | [1]; LYM broth, 1.5 mM MgCl2 | [1]; LYM broth, 2.5 mM MgCl2 | S. aureus ATCC 33591; LYM broth, pH 5.5 | S. aureus ATCC 33591; LYM broth, pH 6.5 | S. aureus ATCC 25923; [6] | S. aureus ATCC 25923; LYM broth, pH 4.5 | [2]; [5] | [2]; LYM broth, 1.5 mM MgCl2 | [2]; LYM broth, 2.5 mM MgCl2 | [2]; [6] | [3]; [8] | [3]; [10] | [4]; [8] | [4]; [10]
50 µg/mL: [1]; [7] | S. aureus ATCC 33593; [7] | S. aureus ATCC 33591; LYM broth, 2.5 mM MgCl2 | S. aureus ATCC 33591; [6] | S. aureus ATCC 33591; [7] | S. aureus ATCC 25923; [10] | [2]; [10] | [4]; [9]
>50 µg/mL: [1]; [8] | [1]; [9] | S. aureus ATCC 33593; [8] | S. aureus ATCC 33593; [9] | S. aureus ATCC 33593; [10] | S. aureus ATCC 33591; [8] | S. aureus ATCC 33591; [9] | S. aureus ATCC 33591; [10] | S. aureus ATCC 25923; [8] | S. aureus ATCC 25923; [9] | [2]; [8] | [2]; [9]
1.56 µg/mL: [3]; [5] | [3]; LYM broth, 0.5 mM MgCl2 | [3]; [6] | [3]; LYM broth, pH 4.5 | [3]; LYM broth, pH 5.5 | [3]; LYM broth, pH 6.5 | [4]; [5] | [4]; LYM broth, 0.5 mM MgCl2 | [4]; LYM broth, pH 6.5

Ac-KWRKWLKWLAKKK-NH2 [Peptide W5K01]
6.25 µg/mL: [1]; LYM broth, 0.5 mM MgCl2 | [1]; LYM broth, 1.5 mM MgCl2 | [1]; [6] | S. aureus ATCC 33593; [5] | S. aureus ATCC 33593; LYM broth, 0.5 mM MgCl2 | S. aureus ATCC 33593; LYM broth, 1.5 mM MgCl2 | S. aureus ATCC 33593; LYM broth, 2.5 mM MgCl2 | S. aureus ATCC 33593; [6] | S. aureus ATCC 33593; LYM broth, pH 4.5 | S. aureus ATCC 33591; [5] | S. aureus ATCC 33591; LYM broth, 0.5 mM MgCl2 | S. aureus ATCC 33591; LYM broth, 1.5 mM MgCl2 | S. aureus ATCC 33591; LYM broth, 2.5 mM MgCl2 | S. aureus ATCC 33591; LYM broth, pH 4.5 | S. aureus ATCC 33591; LYM broth, pH 5.5 | S. aureus ATCC 25923; LYM broth, 1.5 mM MgCl2 | S. aureus ATCC 25923; LYM broth, 2.5 mM MgCl2 | S. aureus ATCC 25923; [6] | [2]; LYM broth, 1.5 mM MgCl2 | [2]; [6] | [3]; [9] | [3]; [10] | [4]; [10]
50 µg/mL: S. aureus ATCC 33593; [9] | S. aureus ATCC 33593; [10] | S. aureus ATCC 33591; [9] | S. aureus ATCC 33591; [10] | S. aureus ATCC 25923; [8]
3.13 µg/mL: [1]; [5] | [1]; LYM broth, pH 4.5 | [1]; LYM broth, pH 5.5 | [1]; LYM broth, pH 6.5 | S. aureus ATCC 33593; LYM broth, pH 5.5 | S. aureus ATCC 33593; LYM broth, pH 6.5 | S. aureus ATCC 33591; LYM broth, pH 6.5 | S. aureus ATCC 25923; [5] | S. aureus ATCC 25923; LYM broth, 0.5 mM MgCl2 | S. aureus ATCC 25923; LYM broth, pH 4.5 | S. aureus ATCC 25923; LYM broth, pH 5.5 | [2]; [5] | [2]; LYM broth, 0.5 mM MgCl2 | [2]; LYM broth, pH 4.5 | [2]; LYM broth, pH 5.5 | [3]; LYM broth, 2.5 mM MgCl2 | [3]; [7] | [3]; [8] | [4]; LYM broth, 2.5 mM MgCl2 | [4]; [6] | [4]; [7] | [4]; [8]
1.56 µg/mL: S. aureus ATCC 25923; LYM broth, pH 6.5 | [2]; LYM broth, pH 6.5 | [3]; [5] | [3]; LYM broth, 0.5 mM MgCl2 | [3]; LYM broth, 1.5 mM MgCl2 | [3]; [6] | [3]; LYM broth, pH 4.5 | [3]; LYM broth, pH 5.5 | [3]; LYM broth, pH 6.5 | [4]; [5] | [4]; LYM broth, 0.5 mM MgCl2 | [4]; LYM broth, 1.5 mM MgCl2 | [4]; LYM broth, pH 4.5 | [4]; LYM broth, pH 5.5 | [4]; LYM broth, pH 6.5
25 µg/mL: [1]; [7] | S. aureus ATCC 33593; [8] | S. aureus ATCC 33591; [8]
>50 µg/mL: [1]; [8] | [1]; [9] | S. aureus ATCC 25923; [9] | [2]; [8] | [2]; [9]
12.5 µg/mL: [1]; LYM broth, 2.5 mM MgCl2 | [1]; [10] | S. aureus ATCC 33593; [7] | S. aureus ATCC 33591; [6] | S. aureus ATCC 33591; [7] | S. aureus ATCC 25923; [7] | S. aureus ATCC 25923; [10] | [2]; LYM broth, 2.5 mM MgCl2 | [2]; [7] | [2]; [10] | [4]; [9]
